Here are results for three molecules from US20240115726A1, “HYDRAZONE-BASED SAPONIN DERIVATIVES” (priority 2020, published 2024).

The test system of series [1] is HeLa cells. The series is described as follows: Endosomal escape enhancing activity: saponin titrated with fixed non-effective toxin conjugate, cell killing (MTS). The conditions noted are these: for IC50: Homo sapiens, HeLa, read-out: IC50 nM (Activity; +5 pM EGFdianthin); for pIC50: HeLa cells.
Method: (§1) Cell viability was determined by an MTS-assay, performed according to the manufacturer's instruction (CellTiter 96® AQueous One Solution Cell Proliferation Assay, Promega). Briefly, the MTS solution was diluted 20× in DMEM without phenol red (PAN-Biotech GmbH) supplemented with 10% FBS (PAN-Biotech GmbH). The cells were washed once with 200 μL PBS per well, after which 100 μL diluted MTS solution was added per well. The plate was incubated for approximately 20-30 minutes at 37° C. […] For quantification the background signal of ‘medium only’ wells was subtracted from all other wells, before the ratio of untreated/treated cells was calculated, by dividing the background corrected signal of untreated wells over the background corrected signal of the treated wells.
In series [2] the test system is HeLa cells. The series is described as follows: Toxicity of saponin alone, cell viability (MTS). Format: cell-based. The settings on record: for toxicity, comparison in words: HeLa and A431 cells, FIG. 4; for pIC50: Homo sapiens, HeLa cells, saponin alone. As for the experimental part:
Next, toxicity was determined. […] SO1861-EMCH (blocked): the maleimide functional group is conjugated with mercapto-ethanol.

Series [3] concerns A431 cells. The series is described as follows: Endosomal escape enhancing activity: saponin titrated with fixed non-effective toxin conjugate, cell killing (MTS). The conditions noted are these: for IC50: Homo sapiens, A-431, read-out: IC50 nM (Activity; +5 pM EGFdianthin).
Method: as §1
The subject of series [4] is A431 cells. The series is described as follows: Toxicity of saponin alone, cell viability (MTS). The class given is cell-based. The settings on record: Homo sapiens, A-431.
Method: Cell viability was determined by an MTS-assay, performed according to the manufacturer's instruction (CellTiter 96® AQueous One Solution Cell Proliferation Assay, Promega). Briefly, the MTS solution was diluted 20× in DMEM without phenol red (PAN-Biotech GmbH) supplemented with 10% FBS (PAN-Biotech GmbH). The cells were washed once with 200 μL PBS per well, after which 100 μL diluted MTS solution was added per well. The plate was incubated for approximately 20-30 minutes at 37° C. Subsequently, the optical density at 492 nm was measured on a Thermo Scientific Multiskan FC plate reader (Thermo Scientific). For quantification the background signal of ‘medium only’ wells was subtracted from all other wells, before the ratio of untreated/treated cells was calculated, by dividing the background corrected signal of untreated wells over the background corrected signal of the treated wells.
The test system of another series is Human Red blood cells. The series is described as follows: Hemolysis assay. The class given is cell-based. The conditions noted are these: for hemolytic activity, comparison in words: fresh Human Red blood cells, FIG. 5.

pIC50: −log10 of the molar value.

Method for Human Red blood cells: Red blood cells (RBCs) were isolated from a buffy coat using a Ficoll gradient. The obtained RBC pellet (→4-5 ml) was washed 2× with 50 ml DPBS (without Ca^2+/Mg^2+, PAN-Biotech GmbH). Cells were pelleted by centrifugation for 10 min, 800×g at RT. RBC were counted and resuspended at 500,000,000 c/ml in DPBS (without Ca^2+/Mg^2+), based on total cell count. […] For positive lysis control a 0.02% Triton-X100 solution was prepared in DPBS^+/+. Of all compound solutions 135 μl was dispensed/well in a 96 well V-bottom plate. To this 15 μl RBC suspension was added and mixed shortly (10 sec-600 rpm). The plate was incubated 30 min at RT, with gentle agitation. Afterwards the plate was spun for 10 min at 800×g to pellet the RBC and 100-120 μl supernatant was transferred to a standard 96 wp. Subsequently, the OD at 405 nm was measured on a Thermo Scientific Multiskan FC plate reader (Thermo Scientific). For quantification the background signal of ‘DPBS^+/+ only’ wells was subtracted from all other wells before the percentage of hemolysis was calculated in comparison to 0.02% Triton-X100, by dividing the background corrected signal of treated wells over the background corrected signal of the 0.02% Triton-X100 wells (×100).

`CC(=O)OC1C(C)OC(OC2C(C)OC(OC(=O)[C@]34CCC(C)(C)CC3C3=CCC5[C@@]6(C)CC[C@H](OC7OC(C(=O)O)C(O)C(OC8OCC(O)C(O)C8O)C7OC7OC(CO)C(O)C(O)C7O)CC6[C@@](C)(/C=N/NC(=O)CCOCCOCCOCCOCCN6N=NC7c8ccccc8CN(C(=O)CCC(=O)ON8C(=O)CCC8=O)c8ccccc8C76)C[C@@]5(C)[C@]3(C)C[C@H]4O)C(OC3OC(C)C(OC4OCC(O)C(OC5OC(CO)C(O)C(O)C5O)C4O)C(O)C3O)C2O)C(O)C1OC1OCC(O)C(O)C1O` (stereo partly drawn): the IC50 (in general, the concentration that inhibits the measured activity by half) in the series with HeLa cells [1] is 4000 nM; with A431 cells [3] it was 3000 nM. Besides, the pIC50 (as a rule, the negative decadic logarithm of the IC50, by convention in mol/L) is 5.70 in the series with HeLa cells [1] (read-out: IC50 (activity; +10 pM Cetuximab-saporin), +10 pM Cetuximab-saporin); 5.52 in the series with HeLa cells [1] (read-out: IC50 (activity; +50 pM Trastuzumab-saporin), +50 pM Trastuzumab-saporin); less than 4.00 in the series on HeLa cells [2]; 5.70 with A431 cells [3] (read-out: IC50 (activity; +10 pM Cetuximab-saporin), A431 cells, +10 pM Cetuximab-saporin); less than 4.52 in the series with A431 cells [4]; less than 3.00 in the series with Human Red blood cells (Homo sapiens, Erythrocyte, red blood cells, Table 3). Also, the “toxicity, comparison in words” value in the series on HeLa cells [2] was “comparable with the toxicity observed with SO1861-EMCH”. For the same molecule, the “hemolytic activity, comparison in words” value in the series with Human Red blood cells was “comparable hemolytic activity”.

As to `CC(=O)OC1C(C)OC(OC2C(C)OC(OC(=O)[C@]34CCC(C)(C)CC3C3=CCC5[C@@]6(C)CC[C@H](OC7OC(C(=O)O)C(O)C(OC8OCC(O)C(O)C8O)C7OC7OC(CO)C(O)C(O)C7O)[C@@](C)(C=O)C6CC[C@@]5(C)[C@]3(C)C[C@H]4O)C(OC3OC(C)C(OC4OCC(O)C(OC5OC(CO)C(O)C(O)C5O)C4O)C(O)C3O)C2O)C(O)C1OC1OCC(O)C(O)C1O` (stereo partly drawn) [SO1861, reference compound], the “endosomal escape enhancing activity, comparison in words” value with HeLa cells [1] (HeLa and A431 cells, with EGFdianthin, Cetuximab-saporin or Trastuzumab-saporin, FIG. 1-3) was “strongest activity”. The IC50 with HeLa cells [1] came out at 500 nM. In addition, in the series with HeLa cells [2], the “toxicity, comparison in words” value was “strongest toxicity” and the pIC50 was 5.05. Besides, the IC50 in the series with A431 cells [3] was 300 nM.

As to `CC(=O)OC1C(C)OC(OC2C(C)OC(OC(=O)[C@]34CCC(C)(C)CC3C3=CCC5[C@@]6(C)CC[C@H](OC7OC(C(=O)O)C(O)C(OC8OCC(O)C(O)C8O)C7OC7OC(CO)C(O)C(O)C7O)[C@@](C)(/C=N/NC(=O)CCCCCN7C(=O)C=CC7=O)C6CC[C@@]5(C)[C@]3(C)C[C@H]4O)C(OC3OC(C)C(OC4OCC(O)C(OC5OC(CO)C(O)C(O)C5O)C4O)C(O)C3O)C2O)C(O)C1OC1OCC(O)C(O)C1O` (stereo partly drawn) [SO1861-EMCH, reference compound], the IC50 in the series with HeLa cells [1] worked out at 4000 nM. In the series with A431 cells [4], the pIC50 was less than 4.52. Also, in the series on Human Red blood cells, the “hemolytic activity, comparison in words” value is recorded as “comparable hemolytic activity”.
